Target: PdtaS (PdtaS-EGFP; mtPdtaS; Rv3220c) (Mycobacterium tuberculosis, UniProt P9WGL5)
Experiment: biochemical

Sequence of PdtaS (PdtaS-EGFP; mtPdtaS; Rv3220c) (P9WGL5 whole entry): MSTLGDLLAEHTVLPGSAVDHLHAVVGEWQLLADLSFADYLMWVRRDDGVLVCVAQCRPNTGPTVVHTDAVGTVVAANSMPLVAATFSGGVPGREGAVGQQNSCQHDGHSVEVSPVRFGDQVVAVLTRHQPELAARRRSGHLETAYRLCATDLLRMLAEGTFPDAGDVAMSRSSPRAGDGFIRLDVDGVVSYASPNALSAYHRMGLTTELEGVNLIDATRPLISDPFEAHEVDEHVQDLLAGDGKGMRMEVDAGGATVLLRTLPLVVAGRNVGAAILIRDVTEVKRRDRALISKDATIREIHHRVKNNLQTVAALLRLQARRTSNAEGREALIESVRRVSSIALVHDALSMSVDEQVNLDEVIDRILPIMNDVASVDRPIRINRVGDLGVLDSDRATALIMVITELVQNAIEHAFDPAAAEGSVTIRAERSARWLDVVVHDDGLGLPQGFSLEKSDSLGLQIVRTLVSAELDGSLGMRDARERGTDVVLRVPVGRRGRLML

## Nc1nc2c(ncn2[C@@H]2O[C@@H]3CO[P@](=O)(O)O[C@H]4[C@@H](O)[C@H](n5cnc6c(=O)[nH]c(N)nc65)O[C@@H]4CO[P@](=O)(O)O[C@H]3[C@H]2O)c(=O)[nH]1 [c-di-GMP]
  Kd: 326 ± 107 nM

Reference: doi:10.1101/615575v1 (biorxiv, 2019)
